According to US10543178B2, “Dosage forms and related therapies” (PhilERA New Zealand Limited, priority 2002, dated 2020):
Where “and” joins values, the source holds several entries; their conditions need not be identical. Equal entries are not always repeated. Entries after “also recorded” stand apart in the source; their conditions may differ. Where two headings read alike, the source gives them in different places.

Experiments:
[1] = Induction of diabetes by streptozotocin; format: in vivo, rat; details: three days following STZ injection, 55 mg·kg^−1 i.v., mean ± SEM
From the text: In order to induce diabetes, male Wistar rats (n=28, 303±2.9 g) were divided randomly into diabetic and nondiabetic groups. […] Nondiabetic animals received an equivalent volume of saline. […] Blood glucose and body weight were measure at day 3 following STZ/saline injection and then weekly throughout the study. Diabetes was identified by polydipsia, polyuria and hyperglycemia (>11 mmol·l^−1, Advantage II, Roche Diagnostics, NZ Ltd).

[2] = reported, Kodama et al. 1997; cited from earlier work
[3] = From the text: All animals were fasted overnight prior to surgery but continued to have ad libitum access to deionized water. […] The femoral artery and vein were cannulated with a solid-state blood pressure transducer (Mikrotip™ 1.4F, Millar Instruments, Texas, USA) and a saline filled PE 50 catheter respectively. The ureters were exposed via a midline abdominal incision, cannulated using polyethylene catheters (external diameter 0.9 mm, internal diameter 0.5 mm) and the wound sutured closed. The trachea was cannulated and the animal ventilated at 70-80 breaths·min^−1 with air supplemented with 02 (Pressure Controlled Ventilator, Kent Scientific, Connecticut, USA). The respiratory rate and end-tidal pressure (10-15 cmH2O) were adjusted to maintain end-tidal CO2 at 35-40 mmHg (SC-300 CO2 Monitor, Pryon Corporation, Wisconsin, USA). Body temperature was maintained at 37° C. throughout surgery and the experiment by a heating pad. Estimated fluid loss was replaced with intravenous administration of 154 mmol·l^−1 NaCl solution at a rate of 5 ml·kg^−1·h^−1.
(§1) Following surgery and a 20 min stabilization period, the experimental protocol was started. […] Control animals received an equivalent volume of saline. Urine was collected in 15 min aliquots throughout the experiment in pre-weighed polyethylene epindorf tubes. At the end of the experiment a terminal blood sample was taken by cardiac puncture and the separated serum stored at −80° C. until future analysis. Hearts were removed through a rapid mid-sternal thoracotomy and processed as described below.
Urine and tissue analysis was carried out as follows. Instrumentation: A Perkin Elmer (PE) Model 3100 Atomic Absorption Spectrophotometer equipped with a PE HGA-600 Graphite Furnace and PE AS-60 Furnace Autosampler was used for Cu and Fe determinations in urine. Deuterium background correction was employed. A Cu or Fe hollow-cathode lamp (Perkin Elmer Corporation) was used and operated at either […]. The 324.8 nm atomic line was used for Cu and the 248.3 nm atomic line for Fe. The slit width for both Cu and Fe was 0.7 nm. Pyrolytically coated graphite tubes were used for all analyses. The injection volume was 20 μL. A typical graphite furnace temperature program is shown below:
Urine: Urine was collected in pre-weighed 1.5 ml micro test tubes (eppendorf). After reweighing, the urine specimens were centrifuged and the supernatant diluted 25:1 with 0.02 M 69% Aristar grade HNO3. The sample was stored at 4° C. prior to GF-AAS analysis. If it was necessary to store a sample for a period in excess of 2 weeks, it was frozen and kept at −20° C. Serum: Terminal blood samples were centrifuged and serum treated and stored as per urine until analysis. From the trace metal content of serum from the terminal blood sample and urine collected over the final hour of the experiment, renal clearance was calculated using the following equation: […]
Statistical analyses were carried out as follows. All values are expressed as mean±SEM and P values <0.05 were considered statistically significant. Student's unpaired t-test was initially used to test for weight and glucose differences between the diabetic and control groups. For comparison of responses during drug exposure, statistical analyses were performed using analysis of variance (Statistics for Windows v.6.1, SAS Institute Inc., California, USA). Subsequent statistical analysis was performed using a mixed model repeated measures ANOVA design (see Example 4).

[4] = remark: listed apart in the source
Experimental: as §1
Mean arterial pressure (MAP), heart rate (HR, derived from the MAP waveform) oxygen saturation (Nonin 8600V Pulse Oximeter, Nonin Medical Inc., Minnesota, USA) and core body temperature, were all continuously monitored throughout the experiment using a PowerLab/16s data acquisition module (AD Instruments, Australia).
Following surgery and a 20 min stabilization period, the experimental protocol was started. […] Urine was collected throughout the experiment in 15 min aliquots.

[5] = normal and diabetic rats, acute i.v. increasing doses
Experimental: Methods were carried out as follows. Spectrophotometric analysis was conducted as described in Example 2. Cu, Fe and Zn in tissue digests were determined at Hill Laboratories (Hamilton, New Zealand) using either a PE Sciex Elan-6000 or PE Sciex Elan-6100 DRC ICP-MS.
Sample pre-treatment was carried out as follows. Heart: Following removal from the animal, the heart was cleaned of excess tissue, rinsed in buffer to remove excess blood, blotted dry and a wet ventricular weight recorded. Using titanium instruments a segment of left ventricular muscle was dissected and placed in a pre-weighed 5.0 ml polystyrene tube. The sample was freeze-dried overnight to constant weight before 0.45 ml of 69% Aristar grade HNO3 was added. The sample tube was heated in a water bath at 65° C. for 60 minutes. The sample was brought to 4.5 ml with Milli-Q H2O. The resulting solution was diluted 2:1 in order to reduce the HNO3 concentration below the maximum permitted for ICP-MS analysis.

[6] = test system: STZ diabetic rats; details: LCM and TEM
From the text: Methods were as follows. Following functional analysis, LV histology was studied by laser confocal (LCM; FIG. 29a-d) and transmission electron microscopy (TEM; FIG. 29e-h). For LCM, LV sections were co-stained with phalloidin to visualize actin filaments, and β1-integrin as a marker for the extracellular space. Ding B, et al., “Left ventricular hypertrophy in ascending aortic stenosis in mice: anoikis and the progression to early failure,” Circulation 101:2854-2862 (2000).
For each treatment, 5 sections from each of 3 hearts were examined by both LCM and TEM. For LCM, LV sections were fixed (4% paraformaldehyde, 24 h); embedded (6% agar); vibratomed (120 pm, Campden); stained for f-actin (Phalloidin-488, Molecular Probes) and β1-integrin antibody with a secondary antibody of goat anti-rabbit conjugated to CY5 (1:200; Ding B, et al., “Left ventricular hypertrophy in ascending aortic stenosis in mice: anoikis and the progression to early failure,” Circulation 101:2854-2862 (2000)); and visualised (TCS-SP2, Leica). For TEM, specimens were post-fixed (1:1 v/v 1% w/v 0s0 M 0s0 M PBS); stained (aqueous uranyl acetate (2% w/v, 20 mm) then lead citrate (3 mm)); sectioned (70 nm); and visualized (CM-12, Phillips).

[7] = remark: listed apart in the source
From the text: Methods were as follows. Human studies were approved by institutional ethics and regulatory committees. We measured urinary metal excretion in human males with T2DM or matched non-diabetic controls, baseline information on which is shown in Table 9, in a randomized, double blind, placebo-controlled trial. Males with uncomplicated T2DM (Table 9) underwent 12-d elemental balance studies in a fully residential metabolic unit. All foods and beverages were provided. Total daily intake (method of double diets) and excretion (urinary and fecal) of trace elements (Ca, Mg, Zn, Fe, Cu, Mn, Mo, Cr and Se) were determined (ICP MS).

[8] = T2DM and controls
Experimental: Total metal balance studies were performed in a residential metabolic unit. Total fecal outputs were collected daily for 12 days, freeze dried, and analyzed by ICP-MS for content of Cu, Fe, Zn, Ca, Mg, Mn, Cr, […] and Se.

[9] = 0.67-670 mg/ml in 0.9% saline, four months at 4° C.
Experimental: The concentrations of the stock formulations were: 0.67 mg/ml, 6.7 mg/ml, 67 mg/ml, and 670 mg/ml. The formulation was then administered to the rats in doses of 0.1 mg/kg, 1 mg/kg, 10 mg/kg, and 100 mg/kg to the animals respectively.

[10] = 15 days
Experimental: One sample of the solution was stored in the dark at 4° C. and 21° C. in the dark and a third sample was stored at 21° C. in daylight.
The Ultraviolet-visible spectrum of the formulation was initially measured at day 0 and then at day 15. 20 μl aliquots of sample solutions were taken at day 15. For each aliquot 960 μl of 50 mM TRIS buffer and 20p aliquot of Copper Nitrate standard (100 mM—Orion Research Inc) were added.

[11] = test system: diabetic Wistar rats; details: six months of treatment
[12] = cited from earlier work
[13] = test system: STZ diabetic rats; experiment: Isolated working heart: cardiac function after 7 weeks oral trientine in drinking water; details: for Heart weight / Left Ventricular wall thickness / Left Ventricular wall thickness per BW / Heart weight (g)/BW (g): trientine weeks 7-13
[14] = test system: humans with T2DM; experiment: 6-month randomized double-blind placebo-controlled trial of oral trientine, LV mass by cardiac MRI; details: 6 months' trientine therapy
From the text: Subjects (30-70 y) who provided written informed consent were eligible for inclusion if they had: T2DM with HbAu1c>7%; cardiac ejection fraction (echocardiography) ≥45% with evidence of diastolic dysfunction but no regional wall-motion anomalies; no new medications for more than 6 months with no change of β-blocker dose; normal electrocardiogram (sinus rhythm, normal PR Interval, normal T wave and QRS configuration, and isoelectric ST segment); and greater than 90% compliance with single-blinded placebo therapy during a 2-w run-in period. Women were required to be post-menopausal, surgically sterile, or non-lactating and non-pregnant and using adequate contraception.
Before randomization, potentially eligible subjects entered a 4-w single blind run-in phase of two placebo-capsules twice-daily and underwent screening echocardiography, being excluded if regional wall motion abnormalities or impaired LV systolic function (ejection fraction <50%) were detected. In addition, LV diastolic filling was assessed using mitral inflow Doppler (with pre-load reduction) to ensure patients had abnormalities of diastolic filling; no patient with normal mitral filling proceeded to randomisation. […]
At baseline and following 6 months' treatment, LV mass was determined using cardiac MRI, performed in the supine position with the same 1.5 T scanner (Siemens Vision) using a phased array surface coil. […]

CN(N=O)C(=O)N[C@H]1C(O)O[C@H](CO)[C@@H](O)[C@@H]1O (mixture of isomers) [STZ, streptozotocin]
Blood glucose [1]: 25 ± 2 mmol/L

CC(=O)NCCNCCNCCN.Cl [N-acetyl-trientine hydrochloride]
Chelating activity compared with trientine dihydrochloride [2]: significantly lower

NCCNCCNCCN [trientine, N,N′-Bis(2-aminoethyl)-1,2-ethanediamine]
Iron excretion versus equivalent volume of saline ([3]; diabetic and nondiabetic rats): not greater
Total iron excretion versus saline ([3]; diabetic and nondiabetic rats): not different
Urinary Cu excretion versus equivalent volume of saline ([3]; diabetic and nondiabetic rats, all doses 0.1-100 mg/kg i.v.): excreted more Cu
Cu excretion in the urine versus saline ([3]; diabetic rats, 0.1 mg·kg^−1 i.v. (lowest dose)): significantly increased
Copper excretion per gram of body weight, diabetic versus nondiabetic animals ([3]; in response to each dose of drug): significantly greater
Total copper excreted over the entire duration of the experiment versus saline controls ([3]; nondiabetic and diabetic rats): significantly increased
Urine excretion versus equivalent volume of saline ([3]; nondiabetic rats, 100 mg·kg^−1 i.v.): increased
Form of urinary Cu by electron paramagnetic resonance spectroscopy ([3]; urine of drug-treated animals): mainly complexed as trientine-Cu^II
Time to recovery from blood pressure fall ([4]; 100 mg/kg i.v.): 10 min
Effect on blood pressure ([4]; acute i.v. 0.1, 1, 10 and 100 mg/kg): no significant effect
Effect of infusion on MAP and HR ([4]; doses below the highest dose): no effect
Time for MAP to return to pre-dose levels ([4]; highest dose 100 mg/kg i.v.): ≤ 10 min
Maximum decrease in MAP (blood pressure fall) ([4]; highest dose 100 mg/kg i.v., 2 min following administration, 100 mg/kg): 19±4 mmHg and 19+/−4 mmHg
Effect on the copper content of cardiac tissue [5]: no significant effect
Myocardium from trientine-treated nondiabetics [6]: appeared normal
Trientine-evoked urinary Fe excretion ([7]; T2DM and controls, oral 2.4 g): no corresponding increase
Urinary Cu versus placebo ([7]; both groups (T2DM and controls), day 7, oral 2.4 g): increased
Cu excretion from T2DM versus non-diabetic controls following trientine-treatment ([7]; day 7, 2.4-g oral dose, P<0.05): significantly greater
Effect on fecal outputs of Zn, Fe, Ca, Mg, Mn, Cr, Mb or Se [8]: Neither diabetes nor drug had measurable effects
Stability on storage (efficacy as copper chelator) [9]: remains active as a copper chelator
Stability on storage (efficacy as copper chelator) ([9]; listed as trientine hydrochloride): without appreciable deterioration in efficacy
Change in ability to chelate copper on storage ([10]; 100 mM in deionized water, 4° C. dark, 21° C. dark, 21° C. daylight): no detectable change
Effect of room light on copper chelation ([10]; 100 mM solution, 21° C. in daylight): no detectable detrimental effect
Protection of the heart from development of diabetic damage (cardiomyopathy), as judged by histology [11]: appears to protect
Bioavailability of the active species after oral administration [12]: < 10%
Cardiac function versus untreated diabetic controls ([13]; STZ diabetic rats, oral trientine 7 weeks): improved; also recorded: global improvement in cardiac function
Heart weight ([13]; STZ/D7 diabetic rats): 1.18 ± 0.24 g
Left Ventricular wall thickness ([13]; STZ/D7 diabetic rats): 3.79 ± 0.52 mm
Left Ventricular wall thickness per BW ([13]; STZ/D7 diabetic rats): 0.0127 ± 0.0027 mm/g
Heart weight (g)/BW (g) ([13]; STZ/D7 diabetic rats, P < 0.05 vs STZ): 0.0041 ± 0.0005 g/g
Heart weight ([13]; Sham/D7 non-diabetic rats): 1.58 ± 0.05 g
Heart weight (g)/BW (g) ([13]; Sham/D7 non-diabetic rats): 0.0028 ± 0.0001 g/g
Left Ventricular wall thickness ([13]; Sham/D7 non-diabetic rats): 4.03 ± 0.1 mm
Left Ventricular wall thickness per BW ([13]; Sham/D7 non-diabetic rats): 0.0072 ± 0.0003 mm/g
Blood glucose profile versus untreated comparison group ([13]; both treated groups, p = ns): no difference
Indicators for ventricular contraction and relaxation versus untreated diabetic group ([13]; drug treated diabetic group): significantly improved
Trientine treated diabetic hearts still functioning ([13]; increasing after-load, constant pre-load, when 50% of the untreated diabetic hearts had failed): about 90%
Effects on cardiac performance of normal animals ([13]; non-diabetic rats, drug treatment): no adverse effects
Cardiac output ([13]; pre-load increased, after-load held constant, treated diabetic rats): restored to Sham values
Drug-related adverse events [14]: No significant drug-related adverse events
